Legend:
Type in all cases: in vivo
Kochia (Kochia scoparia) [1] = assay: Test A preemergence; conditions: Bassia scoparia, pre-emergence, 240 h, preemergence, 0 to 100 scale where 0 is no effect and 100 is complete control, read-out: Kochia plant response rating
Procedure, shortened: (§1)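 Greenhouse, ~10 d after spray; visual injury vs untreated controls, 0 = no effect, 100 = complete control. Preemergence: directed soil spray over planted seeds. Postemergence: plants 2–10 cm, 1–2 leaf stage. Loam/sand blend. Compound in non-phytotoxic solvent with surfactant.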

[2] = system: barnyardgrass (Echinochloa crus-galli); assay: Test A preemergence; conditions: Echinochloa crus-galli, pre-emergence, 240 h, preemergence, 0 to 100 scale where 0 is no effect and 100 is complete control, read-out: Barnyardgrass plant response rating
Procedure, shortened: as §1

[3] = system: giant foxtail (Setaria faberii); assay: Test A preemergence; conditions: Setaria faberi, pre-emergence, 240 h, preemergence, 0 to 100 scale where 0 is no effect and 100 is complete control, read-out: Foxtail, Giant plant response rating
Procedure, shortened: as §1

[4] = system: pigweed (Amaranthus retroflexus); assay: Test A preemergence; conditions: Amaranthus retroflexus, pre-emergence, 240 h, preemergence, 0 to 100 scale where 0 is no effect and 100 is complete control, read-out: Pigweed plant response rating
[5] = system: ragweed (common ragweed, Ambrosia elatior); assay: Test A preemergence; conditions: Ambrosia artemisiifolia, pre-emergence, 240 h, preemergence, 0 to 100 scale where 0 is no effect and 100 is complete control, read-out: Ragweed plant response rating
Procedure, shortened: as §1

[6] = system: ryegrass, Italian (Italian ryegrass, Lolium multiflorum); assay: Test A preemergence; conditions: Lolium multiflorum, pre-emergence, 240 h, preemergence, 0 to 100 scale where 0 is no effect and 100 is complete control, read-out: Ryegrass, Italian plant response rating
Procedure, shortened: as §1

[7] = system: Galium (catchweed bedstraw, Galium aparine); assay: Test A postemergence; conditions: Galium, post-emergence, 240 h, postemergence
Procedure, shortened: as §1

Kochia (Kochia scoparia) [8] = assay: Test A postemergence; conditions: Bassia scoparia, post-emergence, 240 h, postemergence
Procedure, shortened: as §1

[9] = system: barnyardgrass (Echinochloa crus-galli); assay: Test A postemergence; conditions: Echinochloa crus-galli, post-emergence, 240 h, postemergence
Procedure, shortened: as §1

[10] = system: blackgrass (Alopecurus myosuroides); assay: Test A postemergence; conditions: Alopecurus myosuroides, post-emergence, 240 h, postemergence
Procedure, shortened: as §1

corn (Zea mays) = assay: Test A postemergence; conditions: Zea mays, post-emergence, 240 h, postemergence
Procedure, shortened: as §1

[11] = system: giant foxtail (Setaria faberii); assay: Test A postemergence; conditions: Setaria faberi, post-emergence, 240 h, postemergence
Procedure, shortened: as §1

[12] = system: pigweed (Amaranthus retroflexus); assay: Test A postemergence; conditions: Amaranthus retroflexus, post-emergence, 240 h, postemergence
Procedure, shortened: as §1

[13] = system: ragweed (common ragweed, Ambrosia elatior); assay: Test A postemergence; conditions: Ambrosia artemisiifolia, post-emergence, 240 h, postemergence
Procedure, shortened: as §1

[14] = system: ryegrass, Italian (Italian ryegrass, Lolium multiflorum); assay: Test A postemergence; conditions: Lolium multiflorum, post-emergence, 240 h, postemergence
Procedure, shortened: as §1

[15] = system: wheat (Triticum aestivum); assay: Test A postemergence; conditions: Triticum aestivum, post-emergence, 240 h, postemergence
Procedure, shortened: as §1

[16] = 125 g ai/ha, visual injury rating, approximately 10 d

**Q.** How did the pest or weed control at 125 g/ha (Kochia (Kochia scoparia) [1]; [16]) turn out when `CN1CC[C@H](c2ccc(C(F)(F)F)cc2)[C@@H](C(=O)Nc2cccc(Cl)c2F)C1=O` [Compound 1228] was run?
**A.** 0%

**Q.** What about the pest or weed control at 500 g/ha (Kochia (Kochia scoparia) [1]; 500 g ai/ha) of the same compound?
**A.** 0%

**Q.** And the pest or weed control at 125 g/ha [2, 16]?
**A.** 90%

**Q.** And the pest or weed control at 500 g/ha ([2]; 500 g ai/ha)?
**A.** 90%

**Q.** What about the pest or weed control at 125 g/ha [3, 16] of the same compound?
**A.** 90%

**Q.** And the pest or weed control at 500 g/ha ([3]; 500 g ai/ha)?
**A.** 90%

**Q.** And the pest or weed control at 125 g/ha [4, 16]?
**A.** 20%

**Q.** What about the pest or weed control at 500 g/ha ([4]; 500 g ai/ha) of the same compound?
**A.** 60%

**Q.** What about the pest or weed control at 125 g/ha [5, 16] of the same compound?
**A.** 0%

**Q.** And the pest or weed control at 500 g/ha ([5]; 500 g ai/ha)?
**A.** 0%

**Q.** What about the pest or weed control at 125 g/ha [6, 16] of the same compound?
**A.** 30%

**Q.** What about the pest or weed control at 500 g/ha ([6]; 500 g ai/ha) of the same compound?
**A.** 60%

**Q.** And the pest or weed control at 125 g/ha ([7]; 125 g ai/ha, visual injury vs untreated controls after approx. 10 d, 0 = no effect, 100 = complete control, read-out: Galium plant response rating (0 to 100 scale))?
**A.** 20%

**Q.** What about the pest or weed control at 500 g/ha ([7]; 500 g ai/ha, 0 to 100 scale, 0 is no effect, 100 is complete control, read-out: Galium plant response rating) of the same compound?
**A.** 60%

**Q.** And the pest or weed control at 125 g/ha (Kochia (Kochia scoparia) [8]; 125 g ai/ha, visual injury vs untreated controls after approx. 10 d, 0 = no effect, 100 = complete control, read-out: Kochia plant response rating (0 to 100 scale))?
**A.** 60%

**Q.** And the pest or weed control at 500 g/ha (Kochia (Kochia scoparia) [8]; 500 g ai/ha, 0 to 100 scale, 0 is no effect, 100 is complete control, read-out: Kochia plant response rating)?
**A.** 60%

**Q.** And the pest or weed control at 125 g/ha ([9]; 125 g ai/ha, visual injury vs untreated controls after approx. 10 d, 0 = no effect, 100 = complete control, read-out: Barnyardgrass plant response rating (0 to 100 scale))?
**A.** 90%

**Q.** What about the pest or weed control at 500 g/ha ([9]; 500 g ai/ha, 0 to 100 scale, 0 is no effect, 100 is complete control, read-out: Barnyardgrass plant response rating) of the same compound?
**A.** 90%

**Q.** What about the pest or weed control at 125 g/ha ([10]; 125 g ai/ha, visual injury vs untreated controls after approx. 10 d, 0 = no effect, 100 = complete control, read-out: Blackgrass plant response rating (0 to 100 scale)) of the same compound?
**A.** 0%

**Q.** What about the pest or weed control at 500 g/ha ([10]; 500 g ai/ha, 0 to 100 scale, 0 is no effect, 100 is complete control, read-out: Blackgrass plant response rating) of the same compound?
**A.** 40%

**Q.** What about the plant injury at 125 g/ha (corn (Zea mays); 125 g ai/ha, visual injury vs untreated controls after approx. 10 d, 0 = no effect, 100 = complete control, read-out: Corn plant response rating (0 to 100 scale)) of the same compound?
**A.** 20%

**Q.** What about the plant injury at 500 g/ha (corn (Zea mays); 500 g ai/ha, 0 to 100 scale, 0 is no effect, 100 is complete control, read-out: Corn plant response rating) of the same compound?
**A.** 70%

**Q.** And the pest or weed control at 125 g/ha ([11]; 125 g ai/ha, visual injury vs untreated controls after approx. 10 d, 0 = no effect, 100 = complete control, read-out: Foxtail, Giant plant response rating (0 to 100 scale))?
**A.** 80%

**Q.** And the pest or weed control at 500 g/ha ([11]; 500 g ai/ha, 0 to 100 scale, 0 is no effect, 100 is complete control, read-out: Foxtail, Giant plant response rating)?
**A.** 80%

**Q.** What about the pest or weed control at 125 g/ha ([12]; 125 g ai/ha, visual injury vs untreated controls after approx. 10 d, 0 = no effect, 100 = complete control, read-out: Pigweed plant response rating (0 to 100 scale)) of the same compound?
**A.** 20%

**Q.** What about the pest or weed control at 500 g/ha ([12]; 500 g ai/ha, 0 to 100 scale, 0 is no effect, 100 is complete control, read-out: Pigweed plant response rating) of the same compound?
**A.** 50%

**Q.** And the pest or weed control at 125 g/ha ([13]; 125 g ai/ha, visual injury vs untreated controls after approx. 10 d, 0 = no effect, 100 = complete control, read-out: Ragweed plant response rating (0 to 100 scale))?
**A.** 0%

**Q.** And the pest or weed control at 500 g/ha ([13]; 500 g ai/ha, 0 to 100 scale, 0 is no effect, 100 is complete control, read-out: Ragweed plant response rating)?
**A.** 0%

**Q.** What about the pest or weed control at 125 g/ha ([14]; 125 g ai/ha, visual injury vs untreated controls after approx. 10 d, 0 = no effect, 100 = complete control, read-out: Ryegrass, Italian plant response rating (0 to 100 scale)) of the same compound?
**A.** 0%

**Q.** What about the pest or weed control at 500 g/ha ([14]; 500 g ai/ha, 0 to 100 scale, 0 is no effect, 100 is complete control, read-out: Ryegrass, Italian plant response rating) of the same compound?
**A.** 30%

**Q.** And the plant injury at 125 g/ha ([15]; 125 g ai/ha, visual injury vs untreated controls after approx. 10 d, 0 = no effect, 100 = complete control, read-out: Wheat plant response rating (0 to 100 scale))?
**A.** 0%

**Q.** What about the plant injury at 500 g/ha ([15]; 500 g ai/ha, 0 to 100 scale, 0 is no effect, 100 is complete control, read-out: Wheat plant response rating) of the same compound?
**A.** 30%
